In patent publication US10716773B2, “Compositions comprising 15-HEPE and methods of treating or preventing cancer and neurologic disease” (Afimmune Limited, priority 2015, dated 2020):
Values joined by “and” are separate entries in the source; they are usually repeats but may differ in a detail not shown here. Identical values can stand only once.

Experiments:
[1] = tested on: normal human dermal fibroblasts (NHDF); test: MTT reduction assay and observation of the cell layers: viability of fibroblasts after 48 hours of incubation; assay type: cell-based; conditions: for Visability (%): single replicates
Protocol: Normal human dermal fibroblasts (NHDF) were used at the 8th passage. Cells were cultured at 37° C., 5% CO2 in DMEM supplemented with L-glutamine 2 mM, 50 U/ml Penicillin, 50 μg/ml Streptomycin and 10% Foetal calf serum (FCS).

caspase-3/7 = test: Staurosporine-induced caspase-3/7 activity in NHDF, measured in cell lysates with fluorogenic substrate Ac-DEVD-AMC; assay type: cell-based, human; conditions: staurosporine-stimulated NHDF; for Caspase-3/7 activity (Fluorescence 380 nm/440 nm) / Caspase-3/7 activity - Background (Fluorescence 380 nm/440 nm) / Caspese-3/7 activity/proteins: single replicates, listed as 16(8)-HE PE EE
Protocol: The potential inhibitory effect of compounds 15(S)-HEPE EE and EPA EE was evaluated on staurosporine-induced caspase activation in normal human dermal fibroblasts (NHDF). […] Normal human dermal fibroblasts (NHDF) were used at the 8th passage. […] Fibroblasts were seeded in 24-well plates and cultured for 24 hours in culture medium. The medium was then removed and replaced by assay medium containing or not (control) the test compounds and cells were pre-incubated for 24 hours. […] The cells were then incubated for 24 hours. Non-stimulated controls (without inducer) were performed in parallel. All experimental conditions were performed in n=3. […] Enzyme activity assay and protein quantification assay were performed in separated plates due to the fact that DTT used in the lysis buffer for caspase activity interferes with protein quantification. […] Lysis buffer: HEPES buffer (pH 7.4) containing EDTA, Triton X-100, NP-40 and DTT Assay Buffer: HEPES buffer (pH 7.4) containing NaCl, EDTA, NP-40, glycerol and DTT Substrate: Ac-DEVD-AMC, tested at 10 μM (stock solution at 1.5 mM in DMSO) Reference inhibitor: […] Ac-DEVD-AMC is a synthetic tetrapeptide fluorogenic substrate for caspase-3 and caspase-7 and contains the amino acid sequence of the PARP cleavage site at […]. […] Enzymes cleave the tetrapeptide between D and AMC resulting in the release of fluorogenic AMC, which can be quantified with a spectrofluorometer. […] In parallel, an additional control (assay buffer containing the substrate) was also performed to determine the background signal. At the end of incubation, the fluorescence intensity emitted by the reaction product (cleaved Ac-DEVD-AMC) was measured at wavelengths λex 380 nm and λem 440 nm using a spectrofluorimeter (SPECTRAmax® Gemini, Molecular Devices).

CC/C=C\C[C@H](O)/C=C/C=C\C/C=C\C/C=C\CCCC(=O)OCC [15(S)-HEPE EE]
Visability (%) Mean ([1]; 0.001 μg/ml): 98% | Visability (%) ([1]; 0.001 μg/ml): 99% and 97% and 98% | Visability (%) Mean ([1]; 0.01 μg/ml): 96% | Visability (%) ([1]; 0.01 μg/ml): 90% and 100% and 98% | Visability (%) Mean ([1]; 0.1 μg/ml): 97% | Visability (%) ([1]; 0.1 μg/ml): 99% and 96% and 98% | Visability (%) Mean ([1]; 1 μg/ml): 97% | Visability (%) ([1]; 1 μg/ml): 96% (2×) and 97% | Visability (%) Mean ([1]; 10 μg/ml): 101% | Visability (%) ([1]; 10 μg/ml): 100% and 102% and 101% | Visability (%) Mean ([1]; 30 μg/ml): 99% | Visability (%) ([1]; 30 μg/ml): 103% and 98% and 96% | Visability (%) Mean ([1]; 100 μg/ml): 104% | Visability (%) ([1]; 100 μg/ml): 103% and 105% and 104% | Visability (%) Mean ([1]; 300 μg/ml): 100% | Visability (%) ([1]; 300 μg/ml): 98% and 105% and 97% | % inhibition (caspase-3/7; 0.001 μg/ml): −37% | % stimulated control (caspase-3/7; 0.001 μg/ml): 134% | Normalized data: Mean (caspase-3/7 activity/proteins) (caspase-3/7; 0.001 μg/ml): 114767 AU/mg | Caspase-3/7 activity (Fluorescence 380 nm/440 nm) (caspase-3/7; 0.001 μg/ml): 1809 AU and 1753 AU and 1686 AU | Caspase-3/7 activity - Background (Fluorescence 380 nm/440 nm) (caspase-3/7; 0.001 μg/ml): 1479 AU and 1423 AU and 1396 AU | Caspese-3/7 activity/proteins (caspase-3/7; 0.001 μg/ml): 109076 AU/mg and 129611 AU/mg and 105615 AU/mg | % inhibition (caspase-3/7; 0.01 μg/ml): −6% | % stimulated control (caspase-3/7; 0.01 μg/ml): 106% | Normalized data: Mean (caspase-3/7 activity/proteins) (caspase-3/7; 0.01 μg/ml): 90306 AU/mg | Caspase-3/7 activity (Fluorescence 380 nm/440 nm) (caspase-3/7; 0.01 μg/ml): 1495 AU and 1587 AU and 1789 AU | Caspase-3/7 activity - Background (Fluorescence 380 nm/440 nm) (caspase-3/7; 0.01 μg/ml): 1166 AU and 1258 AU and 1459 AU | Caspese-3/7 activity/proteins (caspase-3/7; 0.01 μg/ml): 81085 AU/mg and 89757 AU/mg and 100075 AU/mg | % inhibition (caspase-3/7; 0.1 μg/ml): 4% | % stimulated control (caspase-3/7; 0.1 μg/ml): 98% | Normalized data: Mean (caspase-3/7 activity/proteins) (caspase-3/7; 0.1 μg/ml): 82485 AU/mg | Caspase-3/7 activity (Fluorescence 380 nm/440 nm) (caspase-3/7; 0.1 μg/ml): 1468 AU and 1697 AU and 1154 AU | Caspase-3/7 activity - Background (Fluorescence 380 nm/440 nm) (caspase-3/7; 0.1 μg/ml): 1139 AU and 1367 AU and 825 AU | Caspese-3/7 activity/proteins (caspase-3/7; 0.1 μg/ml): 81102 AU/mg and 109799 AU/mg and 56654 AU/mg | % inhibition (caspase-3/7; 1 μg/ml): −9% | % stimulated control (caspase-3/7; 1 μg/ml): 108% | Normalized data: Mean (caspase-3/7 activity/proteins) (caspase-3/7; 1 μg/ml): 93200 AU/mg | Caspase-3/7 activity (Fluorescence 380 nm/440 nm) (caspase-3/7; 1 μg/ml): 1536 AU and 1600 AU and 1735 AU | Caspase-3/7 activity - Background (Fluorescence 380 nm/440 nm) (caspase-3/7; 1 μg/ml): 1206 AU and 1270 AU and 1406 AU | Caspese-3/7 activity/proteins (caspase-3/7; 1 μg/ml): 86474 AU/mg and 94481 AU/mg and 93645 AU/mg | % inhibition (caspase-3/7; 10 μg/ml): 8% | % stimulated control (caspase-3/7; 10 μg/ml): 93% | Normalized data: Mean (caspase-3/7 activity/proteins) (caspase-3/7; 10 μg/ml): 80078 AU/mg | Caspase-3/7 activity (Fluorescence 380 nm/440 nm) (caspase-3/7; 10 μg/ml): 1439 AU and 1551 AU and 1514 AU | Caspase-3/7 activity - Background (Fluorescence 380 nm/440 nm) (caspase-3/7; 10 μg/ml): 1109 AU and 1221 AU and 1184 AU | Caspese-3/7 activity/proteins (caspase-3/7; 10 μg/ml): 76241 AU/mg and 81395 AU/mg and 82597 AU/mg | % inhibition (caspase-3/7; 100 μg/ml): 83% | % stimulated control (caspase-3/7; 100 μg/ml): 26% | Normalized data: Mean (caspase-3/7 activity/proteins) (caspase-3/7; 100 μg/ml): 21632 AU/mg | effect on caspase-3/7 activity (in words) (caspase-3/7; 100 μg/ml): clear inhibitory effect | Caspase-3/7 activity (Fluorescence 380 nm/440 nm) (caspase-3/7; 100 μg/ml): 663 AU and 729 AU and 660 AU | Caspase-3/7 activity - Background (Fluorescence 380 nm/440 nm) (caspase-3/7; 100 μg/ml): 324 AU and 400 AU and 320 AU | Caspese-3/7 activity/proteins (caspase-3/7; 100 μg/ml): 15788 AU/mg and 15464 AU/mg and 19643 AU/mg | effect on caspase-3/7 activity (in words) (caspase-3/7; tested from 0.001 to 10 μg/ml): no effect
